Data taken from patent US9624249B2, “Nucleoside kinase bypass compositions and methods” (Merck Sharp & Dohme Corp., priority 2013, dated 2017).
Where two headings read alike, the source gives them in different places.

Key:
Format in all cases: cell-based
[1] = tested on: hepatitis virus C (HCV) genotype 1b; test: HCV subgenomic replicon assay (RHEPTAQ), genotype 1b
From the text: (§1) Table 3 and Table 4 summarize the measured activities of these prodrugs as assessed in a subgenomic replicon assay (RHEPTAQ), against genotypes 1a, 1b and 2a.

[2] = tested on: hepatitis virus C (HCV) genotype 1a; test: HCV subgenomic replicon assay (RHEPTAQ), genotype 1a
From the text: as §1

[3] = tested on: hepatitis virus C (HCV) genotype 2a; test: HCV subgenomic replicon assay (RHEPTAQ), genotype 2a
From the text: as §1

[4] = Hepatitis C virus, RHEPTAQ replicon, genotype 1b, read-out: EC50(1b)
[5] = Hepatitis C virus, RHEPTAQ replicon, genotype 1b, read-out: EC90(1b)
[6] = Hepatitis C virus, RHEPTAQ replicon, genotype 1a; read-out: EC50(1a)
[7] = Hepatitis C virus, RHEPTAQ replicon, genotype 1a; read-out: EC90(1a)
[8] = Hepatitis C virus, RHEPTAQ replicon, genotype 2a, read-out: EC90(2a)
[9] = RHEPTAQ replicon, genotype 2a, read-out: EC50(2a)
[10] = Hepatitis C virus, read-out: EC50(2a), RHEPTAQ replicon, genotype 2a
[11] = Hepatitis C virus, read-out: EC90(2a), RHEPTAQ replicon, genotype 2a
[12] = RHEPTAQ replicon, genotype 1b, read-out: EC50(1b)
[13] = RHEPTAQ replicon, genotype 1b, read-out: EC90(1b)
[14] = RHEPTAQ replicon, genotype 1a; read-out: EC50(1a)
[15] = RHEPTAQ replicon, genotype 1a; read-out: EC90(1a)
[16] = RHEPTAQ replicon, genotype 2a, read-out: EC90(2a)

SMILES	EC50 [1, 4]	EC90 [1, 5]	EC50 [2, 6]	EC90 [2, 7]	EC50 [3, 9]	EC50 [1, 12]	EC90 [1, 13]	EC50 [2, 14]	EC90 [2, 15]	EC90 [3, 16]	other results
COCCOCCOCCO[C@H]1CSSCC1OP1(=O)OCC2O[C@@H](n3ccc4c(N)ncnc43)[C@](C)(O)[C@@H]2O1 (some centres unmarked)	183 nM	448 nM	1000 nM	3300 nM	–	–	–	–	–	–	EC50 ([3]; Hepatitis C virus, RHEPTAQ replicon, genotype 2a, read-out: EC50(2a)): 249 nM; EC90 [3, 8]: 896 nM
C[C@@]1(O)[C@@H]2OP(=S)(OC3CSSC[C@@H]3OCc3ccccc3)OCC2O[C@H]1n1ccc(=O)[nH]c1=O (single isomer, unassigned) [drawing 110 isomer 1 and 2]	–	–	–	–	–	–	–	–	–	–	EC50 ([2]; read-out: EC50(1a); RHEPTAQ replicon, genotype 1a): 4000 nM; EC90 ([2]; read-out: EC90(1a); RHEPTAQ replicon, genotype 1a): 8000 nM
COCCOCCOCCO[C@H]1CSSCC1OP1(=O)OCC2O[C@@H](n3ccc(=O)[nH]c3=O)[C@](C)(O)[C@@H]2O1 (single isomer, unassigned) [drawing 111 isomer 1 and 2]	2000 nM	8000 nM	4000 nM	9000 nM	6000 nM	–	–	–	–	–	EC90 [3, 8]: 21000 nM
C#CCO[C@H]1CSSCC1OP1(=O)OCC2O[C@@H](n3ccc4c(N)ncnc43)[C@](C)(O)[C@@H]2O1 (some centres unmarked)	78 nM	318 nM	159 nM	991 nM	–	–	–	–	–	–	EC50 [3, 10]: 135 nM; EC90 [3, 11]: 115 nM
COCCOCCOCCO[C@H]1CSSCC1OP1(=O)OCC2O[C@@H](n3ccc(=O)[nH]c3=O)[C@](C)(O)[C@@H]2O1 (single isomer, unassigned) [drawing 111 isomer 3 and 4]	–	–	–	–	14000 nM	4000 nM	12000 nM	7000 nM	16000 nM	37000 nM	–
C[C@@]1(O)[C@@H]2OP(=O)(OC3CSSC[C@@H]3OCc3ccccc3)OCC2O[C@H]1n1ccc(=O)[nH]c1=O (single isomer, unassigned) [drawing 109 isomer 3 and 4]	–	–	–	–	315 nM	362 nM	783 nM	305 nM	782 nM	1070 nM	–
C[C@@]1(O)[C@@H]2OP(=O)(OC3CSSC[C@@H]3OCc3ccccc3)OCC2O[C@H]1n1ccc(=O)[nH]c1=O (single isomer, unassigned) [drawing 109 isomer 2]	–	–	–	–	44 nM	37 nM	245 nM	50 nM	154 nM	244 nM	–
C[C@@]1(O)[C@@H]2OP(=O)(OC3CSSC[C@@H]3OCc3ccccc3)OCC2O[C@H]1n1ccc(=O)[nH]c1=O (single isomer, unassigned) [drawing 109 isomer 1]	–	–	–	–	90 nM	110 nM	383 nM	70 nM	233 nM	442 nM	–
C#CCO[C@H]1CSSCC1OP(=O)(NCc1ccccc1)OCC1O[C@@H](n2ccc3c(N)ncnc32)[C@](C)(O)[C@@H]1O (some centres unmarked)	–	–	12800 nM	25500 nM	–	–	–	–	–	–	EC50 ([1]; Hepatitis C virus, read-out: EC50(1b), RHEPTAQ replicon, genotype 1b): 8500 nM; EC90 ([1]; Hepatitis C virus, read-out: EC90(1b), RHEPTAQ replicon, genotype 1b): 17700 nM; EC50 [3, 10]: 1900 nM; EC90 [3, 11]: 7900 nM
